In paper PMC11091879, “Inhibitors of the Thioesterase Activity of Mycobacterium tuberculosis Pks13 Discovered Using DNA-Encoded Chemical Library Screening” (ACS Infectious Diseases, 2024):
pIC50: −log10 of the molar value. ≈ marks a conversion by molar mass, not a printed value. Where two headings read alike, the source gives them in different places.

Legend:
[1] = molecular target: Pks13-TE (Mycobacterium tuberculosis, UniProt I6X8D2); test: biochemical; type: binding; conditions: for IC50: IC50 (uM); for pIC50: read-out: IC50
Sequence of Pks13-TE (I6X8D2 1451-1733 limits assumed): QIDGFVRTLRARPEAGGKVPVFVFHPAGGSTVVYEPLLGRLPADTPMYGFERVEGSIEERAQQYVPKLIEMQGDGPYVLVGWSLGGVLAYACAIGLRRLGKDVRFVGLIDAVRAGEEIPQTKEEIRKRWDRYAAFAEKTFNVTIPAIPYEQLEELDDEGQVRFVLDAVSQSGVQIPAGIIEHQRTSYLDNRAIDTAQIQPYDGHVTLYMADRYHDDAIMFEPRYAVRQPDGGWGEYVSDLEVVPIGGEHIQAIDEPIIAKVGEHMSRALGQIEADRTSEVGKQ

[2] = system: WT H37Rv; test: microbe, parasite or virus in culture; type: cell-based, Mycobacterium tuberculosis; conditions: for MIC: Mycobacterium tuberculosis, H37RV
[3] = system: pks13-TetON +ATc (Pks13-hypermorph); type: cell-based, Mycobacterium tuberculosis
[4] = system: pks13-TetON -ATc (hypomorph); type: cell-based, Mycobacterium tuberculosis

| SMILES | IC50 [1] | MIC ([2]; read-out: WT H37Rv MIC (uM)) | Hypermorph MIC fold shift (+ATc/WT) [3] | Hypomorph MIC fold shift (WT/-ATc) [4] | pIC50 [1] | MIC ([2]; read-out: WT H37Rv MIC) | MIC ([2]; read-out: MIC (whole cell activity)) | WT H37Rv MIC [2] |
| --- | --- | --- | --- | --- | --- | --- | --- | --- |
| COc1ccc(Cl)cc1-c1ccc(-c2cn(CCc3ccc(C(=O)N(C)C)cc3)nn2)cn1 [X21434] | 0.46 µM | 1.1 µM (≈ 0.508 µg/mL) | 5.4 fold | 2.4 fold |  |  |  |  |
| Cc1cc(CNC(=O)c2cc(C)nc(N3CCC(C(=O)N4CCN(C(=O)c5ccc6nc(C)ccc6c5)CC4)CC3)n2)cc(C)n1 [X22277] |  |  | 1.8 fold | 2.6 fold | 6.28 | 0.54 µM (≈ 0.335 µg/mL) |  |  |
| Cc1cc(C(=O)NCc2ccncc2)nc(N2CCC(C(=O)N3CCN(C(=O)c4cnc5c(C)cccc5c4)CC3)CC2)n1 [X21429] | 0.42 µM | 0.24 µM (≈ 0.142 µg/mL) | 3.9 fold | 2.3 fold |  |  | 0.24 µM (≈ 0.142 µg/mL) |  |
| COc1ccc(OC)c(-c2ccc(-c3cn(CCc4ccc5nn(C)cc5c4)nn3)cn2)c1 [X21544] |  |  | 1.5 fold | 2.7 fold | 6.26 | 0.47 µM (≈ 0.207 µg/mL) |  |  |
| Cc1cc(C(=O)NCc2ccccc2)nc(N2CC(C(=O)N3CCN(C(=O)c4ccc5nc(C)ccc5c4)CC3)C2)n1 [X22327] |  |  | 3.6 fold | 3.1 fold | 6.25 | 1.3 µM (≈ 0.733 µg/mL) |  |  |
| COc1ccc(Cl)c(-c2ccc(-c3cn(CCc4ccc(C(=O)N(C)C)cc4)nn3)cn2)c1 [X21464] | 0.38 µM | 5.5 µM (≈ 2.54 µg/mL) | 3.8 fold | 2.4 fold |  |  |  |  |
| COc1ccc(OC)c(-c2ccc(-c3cn(CCc4ccc(-c5nccn5C)cc4)nn3)cn2)c1 [X21542] |  |  | 2.7 fold | 1.9 fold | 6.30 | 0.17 µM (≈ 0.0793 µg/mL) |  |  |
| Cc1cccc(-c2ccc(-c3cn(CCc4ccc(C(=O)N(C)C)cc4)nn3)cn2)c1C [X21478] | 0.47 µM | 12 µM (≈ 5.11 µg/mL) | 17 fold | 1.9 fold |  |  |  |  |
| Cc1cc(C(=O)NCc2ccccc2)nc(N2CCC(C(=O)N3CCN(C(=O)c4ccc5nc(C)sc5c4)CC3)CC2)n1 [X21408] |  |  | 5.4 fold | 1.5 fold | 6.34 |  |  | 0.10 µM |
| Cc1cc(C(=O)NCc2ccccc2)nc(N2CCC(C(=O)N3CCN(C(=O)c4ccc(-n5nc(C)cc5C)nc4)CC3)CC2)n1 [X22239] |  |  | 3.7 fold | 1.9 fold | 6.19 | 0.066 µM (≈ 0.041 µg/mL) |  |  |
| COc1ccc(OC)c(-c2ccc(-c3cn(CCc4ccc(S(=O)(=O)N(C)C)cc4)nn3)cn2)c1 [X21545] |  |  | 2.8 fold | 3.2 fold | 6.28 | 1.3 µM (≈ 0.642 µg/mL) |  |  |
| COc1ccn2nc(C(=O)N3CCN(C(=O)C4CCN(c5nc(C)cc(C(=O)NCc6ccccc6)n5)CC4)CC3)cc2c1 [X21411] | 0.48 µM | 0.21 µM (≈ 0.125 µg/mL) | 6.0 fold | 2.1 fold |  |  |  |  |
| Cc1cc(C(=O)NCc2ccccc2)nc(N2CCC(C(=O)N3CCN(C(=O)c4cc5c(Cl)cccn5n4)CC3)CC2)n1 [X22324] |  |  | 3.7 fold | 3.3 fold | 6.28 |  |  | 0.22 µM |
